Experiments:
naive Swiss-Webster mice = experiment: Elevated plus-maze; assay type: in vivo; conditions: 100 or 500 mg/kg
Method: The anxiolytic effect of the DCUK-OMe was studied in naive Swiss-Webster mice using an elevated plus-maze apparatus. The plus-shaped maze consists of two arms which are open to the environment (about 30×5 cm) and two arms with side and end walls (about 30×5×15 cm). The arms are connected to a central area (about 5×5 cm) and the plus-maze is elevated from the floor to a height of about 50 cm.
All tests were conducted in a sound-attenuated room under low intensity light (25 Watt). […] A trained observer blind to the treatment conditions scored the number of entries into open arms, the number of entries into closed arms, the number of entries into the central area, the number of rears, and the number of grooming episodes over a 5-minute period. […] The percentage open arm entries was calculated for each animal and used as a measure of the anxiolytic/anxiogenic effects of drug treatment. In addition, the total number of entries made into either open or closed arms was recorded as a measure of drug effects on locomotor activity.
Mice were injected with either vehicle (5% Tween-80, 20% Intralipid) or 100 mg/kg or 500 mg/kg DCUK-OMe suspended in the vehicle about 90 minutes before testing in the plus-maze apparatus. Data were expressed as the percent increase in open arm entries of the drug treated animals compared to vehicle-injected mice. […] Data were analyzed using a one-way ANOVA on ranks. […]

[1] = tested on: primary cultures of rat cerebellar granule cells; experiment: Glutamate-induced excitotoxic cell death, fluorescein assay; assay type: cell-based
Method: Primary cultures of cerebellar granule cells were prepared from 6- to 8-day old Sprague-Dawley rats. A description of this procedure can be found in Iorio, K. R., et al., “CHRONIC EXPOSURE OF CEREBELLAR GRANULE CELLS TO ETHANOL RESULTS IN INCREASED N-METHYL-D-ASPARTATE RECEPTOR FUNCTION,” Mol. Pharmacol., 41 1142–1148 (1992), the relevant disclosures of which are incorporated herein by reference. The cultures were maintained in plates containing 24 wells of 1 ml each. Culture density was about 1.5×10^6 cells/ml. Cell viability was assayed after 7–8 days in culture by the production of fluorescein, formed from fluorescein diacetate by esterases present in living cells. […]
Cells were washed with Mg^2+-free Locke's buffer, and then exposed to glutamate alone or glutamate in the presence of 10, 30, or 100 μM DCUK-OMe at 25° C. for 30 minutes. […] For each study, the fluorescence value of a control culture (i.e., not exposed to glutamate) was set to 35,000 fluorescence units, and fluorescence values in all other cultures determined using the same spectrofluorometric settings were normalized to that value. […] The data are then expressed as the percent cell death relative to the control cultures.

[2] = biological target: α2-noradrenergic receptors; experiment: [3H]rauwolscine binding, rat cortex crude membranes; conditions: crude P1 membranes
Method: Rat cortices were homogenized in 20 volumes of ice-cold HEPES-KOH buffer (20 mM, pH 7.4) and twice centrifuged at 50,000 g for 20 min with an intermediate suspension in fresh buffer. The final pellet was stored at −20° C. in 4 volumes of buffer. The binding of [^3H]rauwolscine was performed in a 0.5 ml volume using 250–300 μg tissue and 1 nM [^3H]rauwolscine in 20 mM HEPES-KOH buffer (pH 7.4 at 23° C.). Non-specific binding was defined by use of 100 μM norepinephrine.

[3] = biological target: T1, rabbit cardiac L-type VSCC (Oryctolagus cuniculus, UniProt P15381); experiment: Currents through VSCCs in oocytes, two electrode voltage clamp; assay type: cell-based; conditions: 50 μM, Li+ currents, holding −80 mV, test −20 mV
T1 construct: expressed in transfected cells; host or cells: Xenopus laevis oocytes, cRNA injection
Method: In other studies, Stage V and VI oocytes were prepared from Xenopus laevis and maintained using the procedures described in Example 3. Oocytes were injected with cRNA encoding the rabbit cardiac L-type VSCC αic, together with the ancillary subunits α2/β and β2b in a 1:1:1 molar ratio. Macroscopic currents were recorded 4–6 days following injection using the two electrode voltage clamp technique. During recording, oocytes were maintained at room temperature in a perfusion chamber and perfused (1 ml/min) continuously with a buffer containing (in mM) 100 LiCl, 10 HEPES, 10 HEDTA, 14 TEA-Cl, 0.015 CaCl2, (effective free calcium concentration ˜3 nM), pH 7.4 with TEA-OH. The monovalent ion Li^+was used as the charge carrier rather than Ba^2+in these studies because high concentrations of divalent ions promoted precipitation of DCUKA.
DCUKA was made up as a stock solution in DMSO and used in the studies at a concentration of 50 μM, resulting in a final DMSO percentage of 0.25%. This concentration of DMSO enhanced Li^+currents to a small extent, however, this was controlled for by exchanging between solutions that were identical except for presence/absence of the drug itself. […] Li^+currents were recorded using an OC-725B amplifier (Warner Instruments), filtered at 1 kHz (4-pole Bessel filter, Warner Instruments) and sampled at 2 kHz. Voltage pulses of 250 ms duration were given every 15 sec. […]

T1 sequence (P15381 whole entry): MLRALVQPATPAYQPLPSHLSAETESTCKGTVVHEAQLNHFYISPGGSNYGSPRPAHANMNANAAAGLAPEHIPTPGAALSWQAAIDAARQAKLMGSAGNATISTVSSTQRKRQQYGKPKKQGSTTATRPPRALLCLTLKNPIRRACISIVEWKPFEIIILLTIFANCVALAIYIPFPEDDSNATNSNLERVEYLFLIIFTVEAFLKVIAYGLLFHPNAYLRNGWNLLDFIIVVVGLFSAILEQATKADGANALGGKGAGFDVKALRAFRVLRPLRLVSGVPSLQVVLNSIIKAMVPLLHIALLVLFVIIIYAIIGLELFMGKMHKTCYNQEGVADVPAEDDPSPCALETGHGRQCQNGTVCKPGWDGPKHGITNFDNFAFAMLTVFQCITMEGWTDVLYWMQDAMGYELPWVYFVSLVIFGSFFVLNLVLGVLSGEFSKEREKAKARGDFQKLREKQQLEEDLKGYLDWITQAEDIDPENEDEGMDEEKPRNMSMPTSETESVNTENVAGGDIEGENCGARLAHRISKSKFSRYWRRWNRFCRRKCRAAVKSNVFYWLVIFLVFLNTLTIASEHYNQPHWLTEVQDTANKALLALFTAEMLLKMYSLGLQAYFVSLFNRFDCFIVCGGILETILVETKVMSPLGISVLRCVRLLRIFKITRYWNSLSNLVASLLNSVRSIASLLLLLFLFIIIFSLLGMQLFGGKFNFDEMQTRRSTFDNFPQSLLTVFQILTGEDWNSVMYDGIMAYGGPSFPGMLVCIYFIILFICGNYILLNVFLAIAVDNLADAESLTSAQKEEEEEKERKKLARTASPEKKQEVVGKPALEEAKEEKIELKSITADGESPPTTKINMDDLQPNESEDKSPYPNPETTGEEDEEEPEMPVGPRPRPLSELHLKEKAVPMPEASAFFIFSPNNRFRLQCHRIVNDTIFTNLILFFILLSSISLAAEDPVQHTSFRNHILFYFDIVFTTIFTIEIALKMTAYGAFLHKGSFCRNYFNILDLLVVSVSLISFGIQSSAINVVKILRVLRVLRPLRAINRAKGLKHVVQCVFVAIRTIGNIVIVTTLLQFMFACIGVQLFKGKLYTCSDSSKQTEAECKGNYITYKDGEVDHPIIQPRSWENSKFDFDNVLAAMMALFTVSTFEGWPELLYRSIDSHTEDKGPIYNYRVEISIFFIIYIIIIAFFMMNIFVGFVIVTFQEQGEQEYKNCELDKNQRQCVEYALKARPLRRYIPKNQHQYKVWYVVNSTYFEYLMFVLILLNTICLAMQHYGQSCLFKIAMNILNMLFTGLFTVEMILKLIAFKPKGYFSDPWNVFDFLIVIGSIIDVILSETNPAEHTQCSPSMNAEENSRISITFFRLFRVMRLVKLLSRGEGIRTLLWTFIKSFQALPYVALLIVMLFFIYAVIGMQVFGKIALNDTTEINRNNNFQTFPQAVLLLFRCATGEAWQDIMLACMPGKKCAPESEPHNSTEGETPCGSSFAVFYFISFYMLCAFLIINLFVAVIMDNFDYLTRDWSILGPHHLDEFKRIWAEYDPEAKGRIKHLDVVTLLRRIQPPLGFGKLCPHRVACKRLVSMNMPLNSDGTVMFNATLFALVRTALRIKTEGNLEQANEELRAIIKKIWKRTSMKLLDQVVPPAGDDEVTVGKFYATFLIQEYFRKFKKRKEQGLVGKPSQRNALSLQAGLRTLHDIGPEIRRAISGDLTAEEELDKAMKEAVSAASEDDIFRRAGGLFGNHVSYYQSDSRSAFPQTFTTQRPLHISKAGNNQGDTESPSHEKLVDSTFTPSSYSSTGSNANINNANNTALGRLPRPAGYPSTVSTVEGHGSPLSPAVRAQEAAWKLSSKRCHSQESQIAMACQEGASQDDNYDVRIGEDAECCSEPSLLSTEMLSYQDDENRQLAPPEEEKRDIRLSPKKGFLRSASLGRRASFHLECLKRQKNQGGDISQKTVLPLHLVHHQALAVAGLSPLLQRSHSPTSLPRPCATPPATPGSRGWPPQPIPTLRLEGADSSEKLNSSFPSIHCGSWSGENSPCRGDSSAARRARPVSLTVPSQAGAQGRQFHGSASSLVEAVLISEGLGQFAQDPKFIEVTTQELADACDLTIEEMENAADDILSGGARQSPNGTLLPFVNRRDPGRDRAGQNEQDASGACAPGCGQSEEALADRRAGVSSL

SMILES	open arm entries (anxiolytic effect) (naive Swiss-Webster mice; about 90 minutes before testing)	total arm entries (locomotor activity) (naive Swiss-Webster mice; compared to vehicle)	protection from glutamate-induced cell death ([1]; 100 μM)	effect on glutamate-induced cell death ([1]; 10, 30 or 100 μM, 30 minutes with glutamate)	IC50 [2] [µM]	decrement in the current through VSCCs [3]
COC(=O)c1cc(NC(=O)N(c2ccccc2)c2ccccc2)c2c(Cl)cc(Cl)cc2n1 [DCUK-OMe, (N,N-diphenyl)-4-ureido-5,7-dichloro-2-carboxy-quinoline methyl ester]	has anxyolitic activity	did not show any increase in total arm entries	complete protection	can block glutamate-induced cell death in a concentration-dependent manner	–	–
O=C(O)c1cc(NC(=O)N(c2ccccc2)c2ccccc2)c2c(Cl)cc(Cl)cc2n1 [DCUKA, (N,N-diphenyl)-4-ureido-5,7-dichloro-2-carboxy-quinoline]	–	–	–	–	> 200	less than 20%

Source: patent US6962930B1, “Compounds, compositions and method suitable for amelioration of withdrawal syndromes and withdrawal-induced brain damage” (Lohocla Research Corporation, priority 1997, dated 2005)
